Source: patent publication US8614366B2, “Methods for genetic plant transformation using water-soluble fullerene derivatives” (priority 2009, dated 2013)
“Also recorded” adds a separate entry of the source.

Columns and labels:
peanut = conditions: increased from 3.9% with no antioxidant; cited from earlier work
CAMBIA 1302 plasmid = assay: DNA binding by agarose gel electrophoresis (gel mobility); conditions: 50 ng plasmid, 100-300 ng fullerene compound, preincubated 15-30 minutes
Protocol: Each tube was allowed to bind for 15-30 minutes and then place on an agarose gel. […] After running the gel, the bands were visualized using post-staining with commercial SBER SAFE™ 10000× stain.
DNA binding was measured at different fullerene nanoparticle/DNA ratios. The DNA-binding ability of the fullerene test compounds 1, 2, 4, and 6 was examined by direct DNA binding and agarose gel electrophoresis. […] In each case, 50 ng plasmid DNA was preincubated for 30 minutes with 100-300 nG fullerene compound (FIG. 8). The DNA binding titration of plasmid pCAMBIA 1302 with compound 6 was carried with 50 nG pCAMBIA 1302 and various concentrations (93-3000 nG per 10 microL). Results shown in FIG. 8 indicate optimal binding at a concentration of ˜5-6 equivalents fullerene per DNA. FIG. 8 Lane 1: 50 ng of DNA Plasmid DNA only, Lane 2: 50 ng of DNA Plasmid DNA+3000 ng compound 6 (50 equiv), Lane 3: 50 ng of DNA Plasmid DNA+1500 ng compound 6 (25 equiv), Lane 4: 50 ng of DNA Plasmid DNA+750 ng compound 6 (12 equiv), Lane 5: 50 ng of DNA Plasmid DNA+375 ng compound 6 (6 equiv), Lane 6: 50 ng of DNA Plasmid DNA+187 ng compound 6 (3 equiv), Lane 7: 50 ng of DNA Plasmid DNA+93 ng compound 6 (1.5 equiv). Compound 6 stock solution (0.3 mg/mL) was diluted with TE buffer and 10 microL each fullerene dilution was reincubated with plasmid for […] to loading on the gel.

tobacco protoplast cells = assay: Fullerene-enhanced electroporation, GFP expression; assay type: cell-based, Nicotiana tabacum; conditions: tobacco protoplasts, GFP DNA, fluorescence microscope; without fullerene no GFP expression
Protocol: One embodiment of the invention is called fullerene-enhanced electroporation. The method comprises (1) mixing fullerene derivative solution with the DNA of interest, (2) addition of fullerene derivative/DNA solution to plant cells or plant protoplasts, and (3) treatment of the mixture in a Gene Pulser cuvette or similar electroporation apparatus for a few minutes. Suspension was then incubated for 2-3 hours or overnight to allow DNA transfer and gene expression to take place. […] On the left is the light microscope picture showing tobacco protoplast cells after electroporation. […] Experiments to test the fullerene nanoparticles for transformation ability used tobacco protoplasts for transient assays. Sterile suspension cultures (5% w/v) of tobacco (Nicotiana tabacum) were grown in MS basal salts media. Suspension cells were incubated in enzyme solution (0.6 M mannitol, 10 mM MES, 1% Cellulase, 0.2% pectinase) at pH 5.7 in the dark, at 24° C. overnight. After incubation, protoplasts were passed through […] nylon mesh, washed and protoplasts pelleted by centrifugation. Protoplasts were resuspended in the appropriate media required for transformation studies. Electroporation is the process where cells are mixed with a DNA construct and then briefly exposed to pulses of high voltage. […]

| Molecule | Transformation frequencies (peanut) | DNA binding (change in gel mobility) (CAMBIA 1302 plasmid) | GFP expression after electroporation (tobacco protoplast cells) |
| --- | --- | --- | --- |
| N[C@@H](CCC(=O)N[C@@H](CS)C(=O)NCC(=O)O)C(=O)O [glutathione] | 14.6% | – | – |
| O=[Se](O)O [selenite] | 12.4% | – | – |
| FC4S [Compound 2] | – | no DNA binding effect; also recorded: no binding to DNA | – |
| polyhydroxy-C60 [Compound 1] | – | no DNA binding effect; also recorded: no binding to DNA | gene insertion and GFP expression |
| tocopherol | 10.3% | – | – |
